Measured values taken from patent publication US9023853B2, “Janus kinase 2 (JAK2) inhibitor for the treatment of lupus” (Cephalon, Inc., priority 2010, dated 2015).
Values joined by “and” are separate entries in the source; they are usually repeats but may differ in a detail not shown here. Identical values can stand only once.

What was measured:
Format in all cases: in vivo, mouse
[1] = tested on: anti-Smith antigen antibodies; experiment: Serum anti-Smith antigen ANA ELISA in NZM mice; conditions: p<0.05
Text: The measurement of anti-dsDNA and anti-Smith antigen antibodies was done by an in-house generated custom ELISA assay. Chromatin coated plates were purchased from Inova Diagnostics, Inc. Purified bovine thymus dsDNA (Sigma, St. Louis, […].) or purified bovine Smith antigen (GenWay, San Diego, Calif.) were used as coating antigen for the detection of anti-dsDNA and anti-Smith Ag antibodies respectively. Coated plates were washed with Borate Sulfate Saline (BSS) and blocked with BSS containing 1% Bovine Serum Albumin (BSA) and 0.1% Tween-20 detergent. Standard curves were generated using mouse anti-chromatin antibody (Sigma, 2B1) or 25 week old MRL/lpr serum. Mouse anti-dsDNA antibody (Abcam, Cambridge, Mass.), or mouse anti-Smith antigen antibody (Abcam) were used as standards for each assay. […] Developed plates were read using a Victor-X4 spectrophotometer reading at […] with a reference wavelength of 570 nm. […]
Age mated, female, NZM or NZW/LacJ, mice were matured for the study of lupus nephritis for a total of 7 months or 210 days at which time urine was collected for proteinuria detection. Mice with 0.5-1.0 mg/ml of urine protein as determined by an optical density-based total protein precipitation assay and cross-checked for 30-300 mg/dl of protein as determined by a stick assay were considered proteinuria positive and selected for study entry. […]

NZM mice = experiment: Urinalysis total urine protein (proteinuria) in NZM mice; conditions: for I: Proteinuria, MEAN: NZM group mean; for I: Proteinuria: NZM individual mouse
Experimental: Urine samples were acid precipitated for total protein recovery and analysis. Samples for which enough urine remained were used for Uristix® leukouria analysis (MRL/lpr study only). Briefly, a standard protein solution was prepared from normal mouse sera and was used as a standard for mouse urinary protein assay by turbidity. Standard preparation was as follows: 0, 5, 10, 15, 20, 30, 40, and 50 μL of a 4 mg/mL mouse sera standard protein solution as provided in the kit were added in duplicate into two columns. PBS was added to individual wells to adjust the final volume to 50 μL. For urine sample preparation, urine samples were centrifuged at 9880×g for 3 minutes using a tabletop micro-centrifuge. Urine supernatant (1-50 μL) was added in duplicate. PBS was added to adjust the volume to 50 μL total. For the turbidity assay: 25 μL of 0.1 N HCl was added into blank columns and 250 μL of 3% sulfosalicyclic acid into the test columns. The microplate was incubated for 10 minutes at RT and plates were read using an ELISA reader with single beam at 450 nm. For the Uristix® strip assay, strips were laid out and labeled. Twenty microliters of urine were placed onto each test strip square and incubated for at least 30 seconds before the result was recorded. For all total urine analysis plate-based assays, values below the limit of detection set by the lowest point along the standard or set by the manufacturer were considered out of range and were not estimated, but assumed the lowest point along the standard curve for that particular assay.
(§1) Age mated, female, NZM or NZW/LacJ, mice were matured for the study of lupus nephritis for a total of 7 months or 210 days at which time urine was collected for proteinuria detection. Mice with 0.5-1.0 mg/ml of urine protein as determined by an optical density-based total protein precipitation assay and cross-checked for 30-300 mg/dl of protein as determined by a stick assay were considered proteinuria positive and selected for study entry. Groups were normalized to contain a Gaussian distribution of proteinuria positive animals (i.e., ⅓ low proteinuria, ⅓ medium, ⅓ high) then randomized between groups before ear marking and taking baseline measures including urine and serum collections. A total of five mice from the total population were randomly selected for baseline kidney histology evaluation. Treatments and tests for each group are as described in FIG. 12. Briefly, with a minimum of 10 mice per group, COMPOUND A was administered at 100 mg/kg or 55 mg/kg, both twice a day and orally. […] Vehicle included 3% DMSO, 10% Solutol and 87% PBS. […] End-stage lupus nephritis was evaluated by histopathology and scored by a board certified pathologist for the assessment of total renal damage in diseased animals using the scoring method described by Smith et al (Smith, Dong et al. 2007). […] Day-98 or “end of treatment/study” represents 310 days of age for the NZM animals.

IFNα = experiment: Serum IFNα at EOS in NZM mice; conditions: for serum IFNα decrease compared to vehicle: EOS
Experimental: as §1

MRL/lpr mice = experiment: Renal histopathology kidney IC-GN scoring in MRL/lpr mice; conditions: for Glomerular Cellularity / Glomerular Necrosis / Glomerulosclerosis / Interstitial Fibrosis / Interstitial Inflitration / Tubular Atrophy / Vasculitis: MRL/lpr kidney score (grade 0-5), mean
Experimental: Kidney stains used for histological analyses included hematoxylin and eosin (H&E), Periodic Acid Schiff (PAS) and Trichrome stains (Wistar Institute, Philadelphia, Pa.). All 3 stained sections were used by the pathologist for scoring purposes. All histological scoring was performed blinded and by an independent board certified veterinary medical pathologist (Julie […]; University of Pennsylvania). Multiple stains were used to determine score values. Images in FIGS. 8, 19 and 20 show worst affected area of section selected blindly by the pathologist. Kidney IC-GN Scoring Method (Smith, Dong et al. 2007): 1. Glomerular cellularity-Score 1-5: Null, low, moderate, high, severe […] Glomerular necrosis-Score 1-5: Null, low, moderate, high, severe […] Glomerulosclerosis-Score 1-5: Null, low, moderate, high, severe […] Null, low, moderate, high, severe 5. […] Null, low, moderate, high, severe 6. […] Null, low, moderate, high, severe 7. […] Null, low, moderate, high, severe Specific Pathologist Definitions: • Necrosis was defined by the presence of nuclear debris/pyknosis within the glomerular tuft indicative of “necrosis.” In many samples, this was a very mild, rare finding within only a very few segments of the glomerular tuft. Also considered effacement of the glomerular tuft by PAS positive, Trichrome negative material necrosis. • Glomerular sclerosis was defined by increased fibroplasia or fibrosis within the glomerular tuft or capsule. […] Most of the vascular changes were mild and could be considered “arteriosclerosis” characterized by proliferation of the smooth muscle cells, and hyalinization of the extracellular matrix. This change may reflect hypertension secondary to glomerular pathology. In very few animals was there overt “vasculitis.” Most inflammatory changes were within the walls of the blood vessels, with little to no damage to the endothelium, and no overt hemorrhage/fibrin leakage. Many also have perivascular rims of fibroblasts. […] Mice were tracked on an individual basis.

[2] = MRL/lpr mice, 100 mg/kg, p<0.01

CN1CCN(c2cccc(Nc3nc4c(-c5ccc(S(C)(=O)=O)cc5)cccn4n3)c2)CC1 [COMPOUND A, [8-(4-methanesulfonyl-phenyl)-[1,2,4]triazolo[1,5-a]pyridin-2-yl]-[3-(4-methyl-piperazin-1-yl)-phenyl]-amine]
anti-smith antigen ANAs ([1]; COMPOUND A treatment): significantly reduced
I: Proteinuria, MEAN (NZM mice; CMPD A 55 mpk bid): 0.56 mg/mL
I: Proteinuria, MEAN (NZM mice; CMPD A 100 mpk bid): 1.32 mg/mL
I: Proteinuria (NZM mice; CMPD A 55 mpk bid, 55 mg/kg): 0.41 mg/mL (2×) and 0.50 mg/mL and 0.74 mg/mL and 0.48 mg/mL (2×) and 0.52 mg/mL and 1.11 mg/mL and 0.37 mg/mL and 0.61 mg/mL
I: Proteinuria (NZM mice; CMPD A 100 mpk bid, “0.00” = BQL, 100 mg/kg): 0.48 mg/mL and 0.55 mg/mL and 0.70 mg/mL and 0.53 mg/mL and 0.44 mg/mL and 0.11 mg/mL and 0.00 mg/mL (3×) and 10.39 mg/mL
total urine protein decrease compared to vehicle (NZM mice; NZM mice, COMPOUND A 55 mg/kg, over course of disease): 76.25
total urine protein decrease compared to vehicle (NZM mice; NZM mice, COMPOUND A 100 mg/kg, over course of disease): 81.8%
urine protein levels relative to age-matched, non-lupus control mice (NZM mice; NZM mice, COMPOUND A treatment, FIG. 17): below the protein levels of age-matched, non-lupus control mice
serum IFNα decrease compared to vehicle (IFNα; COMPOUND A 55 mg/kg): 70.2%
serum IFNα decrease compared to vehicle (IFNα; COMPOUND A 100 mg/kg): 73.2%
Glomerular Cellularity (MRL/lpr mice; COMPOUND A 30 mg/kg): 2.60
Glomerular Necrosis (MRL/lpr mice; COMPOUND A 30 mg/kg): 1.80
Glomerulosclerosis (MRL/lpr mice; COMPOUND A 30 mg/kg): 1.60
Interstitial Fibrosis (MRL/lpr mice; COMPOUND A 30 mg/kg): 1.60
Interstitial Inflitration (MRL/lpr mice; COMPOUND A 30 mg/kg): 2.20
Tubular Atrophy (MRL/lpr mice; COMPOUND A 30 mg/kg): 1.20
Vasculitis (MRL/lpr mice; COMPOUND A 30 mg/kg): 1.80
Glomerular Cellularity (MRL/lpr mice; COMPOUND A 55 mg/kg): 3.20
Glomerular Necrosis (MRL/lpr mice; COMPOUND A 55 mg/kg): 1.80
Glomerulosclerosis (MRL/lpr mice; COMPOUND A 55 mg/kg): 2.00
Interstitial Fibrosis (MRL/lpr mice; COMPOUND A 55 mg/kg): 1.20
Interstitial Inflitration (MRL/lpr mice; COMPOUND A 55 mg/kg): 2.00
Tubular Atrophy (MRL/lpr mice; COMPOUND A 55 mg/kg): 2.20
Vasculitis (MRL/lpr mice; COMPOUND A 55 mg/kg): 2.00
Glomerular Cellularity (MRL/lpr mice; COMPOUND A 100 mg/kg): 2.40
Glomerular Necrosis (MRL/lpr mice; COMPOUND A 100 mg/kg): 1.8
Glomerulosclerosis (MRL/lpr mice; COMPOUND A 100 mg/kg): 2.20
Interstitial Fibrosis (MRL/lpr mice; COMPOUND A 100 mg/kg): 1.40
Interstitial Inflitration (MRL/lpr mice; COMPOUND A 100 mg/kg): 1.80
Tubular Atrophy (MRL/lpr mice; COMPOUND A 100 mg/kg): 1.40
Vasculitis (MRL/lpr mice; COMPOUND A 100 mg/kg): 1.40
interstitial infiltration decrease vs vehicle (MRL/lpr mice; MRL/lpr mice, 55 mg/kg, p<0.05): 33.3%
glomerular cellularity decrease vs vehicle (MRL/lpr mice; [2]): 33.3%
interstitial infiltration decrease vs vehicle (MRL/lpr mice; [2]): 40%
vasculitis decrease vs vehicle (MRL/lpr mice; [2]): 46.1%
enlarged glomeruli and leukocytic infiltrations in renal sections (MRL/lpr mice; MRL/lpr mice, COMPOUND A treated animals at EOS, FIG. 8): absent
cellular infiltrations/glomerulonephritis and glomerular size in H&E stained renal sections (MRL/lpr mice; MRL/lpr mice, compared to dexamethasone and vehicle groups, FIG. 8): decreases in both cellular infiltrations/glomerulonephritis and glomerular size

O=P1(N(CCCl)CCCl)NCCCO1 (stereo not drawn) [CTX, cyclophosphamide, reference compound]
anti-smith antigen ANAs ([1]; CTX 50 mg/kg once weekly ip): significantly reduced
I: Proteinuria, MEAN (NZM mice; CTX 50 mpk 1 × wk): 2.8 mg/mL
I: Proteinuria (NZM mice; CTX 50 mpk 1 × wk): 11.09 mg/mL and 0.86 mg/mL and 1.44 mg/mL and 0.76 mg/mL and 1.30 mg/mL and 0.71 mg/mL and 8.84 mg/mL and 0.96 mg/mL and 0.58 mg/mL and 1.50 mg/mL
total urine protein decrease compared to vehicle (NZM mice; NZM mice, CTX 50 mg/kg once weekly ip): 67.1%
serum IFNα reduction (IFNα; CTX 50 mg/kg once weekly ip): Neither standard of care agent (i.e., CTX or DEX) exhibited a significant reduction

C[C@@H]1C[C@H]2[C@@H]3CCC4=CC(=O)C=C[C@]4(C)[C@@]3(F)[C@@H](O)C[C@]2(C)[C@@]1(O)C(=O)CO [Dex, dexamethasone, reference compound]
I: Proteinuria, MEAN (NZM mice; Dex 1.5 mpk 3 × wk): 7.86 mg/mL
I: Proteinuria (NZM mice; Dex 1.5 mpk 3 × wk): 8.43 mg/mL and 10.19 mg/mL (2×) and 11.02 mg/mL and 8.47 mg/mL and 0.35 mg/mL and 7.16 mg/mL and 0.55 mg/mL and 12.36 mg/mL and 9.89 mg/mL
Glomerular Cellularity (MRL/lpr mice; Dex 1.5 mg/kg): 3.00
Glomerular Necrosis (MRL/lpr mice; Dex 1.5 mg/kg): 2.00
Glomerulosclerosis (MRL/lpr mice; Dex 1.5 mg/kg): 2.00
Interstitial Fibrosis (MRL/lpr mice; Dex 1.5 mg/kg): 1.20
Interstitial Inflitration (MRL/lpr mice; Dex 1.5 mg/kg): 1.60
Tubular Atrophy (MRL/lpr mice; Dex 1.5 mg/kg): 1.20
Vasculitis (MRL/lpr mice; Dex 1.5 mg/kg): 1.40
